According to patent publication US20230356105A1, “TETRAAZADODECANE BASED CHELATING AGENTS FOR SEPARATION OF RARE EARTH ELEMENTS AND METHOD THEREFOR” (Ustav Organicke Chemie a Biochemie AV CR V.V.I., priority 2020, published 2023):

Assays:
Assay type in all cases: physicochemical
[1] = Separation of binary mixture of rare-earth metals by precipitation using L1, MOPS pH 8.5 (Example 8); conditions: supernatant
Protocol: Analogous to Example 7), the well plate was then centrifuged and concentrations of the metals were determined using ICP-OES. The resulting concentrations of both metals in the supernatants and their ratios are summarized in […]

[2] = Separation of Pr from L5 by C18 column (Example 28)
Protocol: Stock solutions were pipetted into a 20 mL glass vial to prepare a reaction mixture as follows: • 1. 1.00 mL 100 mM aqueous solution of PrCl3 • 2. 0.60 mL 218 mM aqueous solution of L5
NaOH (2 M aqueous stock solution) was added by micropipette to titrate the reaction pH to 6. This reaction was stirred by the use of a PTFE-coated stir bar on a magnetic stirrer at room temperature for 30 minutes. The resulting suspension was transferred into two 2 mL plastic Eppendorf centrifuge tubes and centrifuged. The supernatant was set aside and analysed by HPLC, and the precipitate was dissolved by addition of 0.15 mL 1 M HCl to each Eppendorf tube. These dissolved solutions were combined and titrated to pH 2 by addition of 2 M NaOH.
The L5 and Pr present in the acidic solution were separated by reverse-phase chromatography, using 1.01 g fully-endcapped C18 silica gel in a plastic SPE cartridge (2 cm diameter). After conditioning the reversed phase with MeCN and MeCN/H20 solutions, 1 mL of H2O was run through the column before loading the L5-Pr solution onto the column. MeCN/H20 solutions were used to elute the components from the column: 2 mL 0% MeCN, 4 mL 10% MeCN, 4 mL 25% MeCN, and 4 mL 50% MeCN. The eluted solutions were collected as seven 2 mL fractions. All fractions were analysed by HPLC-MS to determine L5 content. The first two fractions were also analysed by ICP-OES to determine Pr content.
The distribution of L5 and Pr in the fractions is shown in Table 21, where the quantity of each component present in each fraction is provided as a fraction of the total quantity of the component found in the sum of the fractions, as well as the measured content of Pr (in mM) and L5 (as the integrations of the chromatographic peak areas at 280 nm) found in each fraction.

[3] = Separation of Nd/Pr/Tb/Dy mixture by precipitation using L5 (Example 21); conditions: for precipitate after 20 hrs: dissolved to 500 μL; for precipitate after 20 hrs composition / solution after 20 hrs composition: percent molar
Protocol: Stock solutions were pipetted into 4 mL glass vials to prepare reaction mixtures with concentrations as follows: • 1. 38.5 mM (1.1 eq) chelator L5 • 2. 35 mM (1 eq) total LnCl3 content (from a stock solution containing a mixture of Ln=Nd, Pr, Tb, and Dy, in a ratio of 3.3:1:1:1, Nd:Pr:Tb:Dy) • 3. 1750 mM (50 eq) MOPS pH=7
The total reaction volume was 3.2 mL. A PTFE-coated stir bar was added to this vial, and the vial was capped and stirred with the temperature maintained at 40° C. by use of an aluminium heating block on a magnetic stirrer. After 20 hours, a 500 μL aliquot of the reaction mixture was taken from the vial. This was centrifuged in a 2 mL plastic Eppendorf centrifuge vial, and the supernatant was carefully pipetted from this and transferred to a new set of tubes. The precipitate was dissolved by addition of 500 μL 1 M HCl, and the absolute concentration of Nd, Pr, Tb, and Dy in both the supernatants and precipitates was determined by ICP-OES.
The percent molar composition of each phase is also provided, showing the minimal selectivity in precipitation under these conditions.

O=C(O)CN1CCN(CC(=O)O)CCN(Cc2ccccc2)CCN(CC(=O)O)CC1 [L1, 2,2′,2″-(10-benzyl-1,4,7,10-tetraazacyclododecane-1,4,7-triyl)triacetic Acid]
[mM] M1 ([1]; M1=Ce, M2=Er): 0.280 mM | [mM] M1 ([1]; M1=Ce, M2=Tm): 0.425 mM | [mM] Tm ([1]; M1=Ce, M2=Tm): 2.035 mM | M1/Er ([1]; M1=Ce): 0.51 | [mM] M1 ([1]; M1=Dy, M2=Er): 0.338 mM | [mM] M1 ([1]; M1=Dy, M2=Tm): 0.362 mM | [mM] Tm ([1]; M1=Dy, M2=Tm): 2.382 mM | M1/Er ([1]; M1=Dy): 0.34 | [mM] M1 ([1]; M1=Er, M2=Er): 4.969 mM | [mM] M1 ([1]; M1=Er, M2=Tm): 2.759 mM | [mM] Tm ([1]; M1=Er, M2=Tm): 3.368 mM | M1/Er ([1]; M1=Er): 1.00 | [mM] Er ([1]; M1=Eu, M2=Er): 0.680 mM | [mM] M1 ([1]; M1=Eu, M2=Er): 0.244 mM | [mM] M1 ([1]; M1=Eu, M2=Tm): 0.244 mM | [mM] Tm ([1]; M1=Eu, M2=Tm): 2.091 mM | M1/Er ([1]; M1=Eu): 0.36 | [mM] Er ([1]; M1=Gd, M2=Er): 0.972 mM | [mM] M1 ([1]; M1=Gd, M2=Er): 0.402 mM | [mM] M1 ([1]; M1=Gd, M2=Tm): 0.254 mM | [mM] Tm ([1]; M1=Gd, M2=Tm): 1.814 mM | M1/Er ([1]; M1=Gd): 0.41 | [mM] M1 ([1]; M1=Ho, M2=Er): 0.496 mM | [mM] M1 ([1]; M1=Ho, M2=Tm): 0.521 mM | [mM] Tm ([1]; M1=Ho, M2=Tm): 2.329 mM | M1/Er ([1]; M1=Ho): 0.60 | [mM] M1 ([1]; M1=La, M2=Er): 0.368 mM | [mM] M1 ([1]; M1=La, M2=Tm): 0.616 mM | [mM] Tm ([1]; M1=La, M2=Tm): 2.425 mM | M1/Er ([1]; M1=La): 0.57 | [mM] M1 ([1]; M1=Lu, M2=Er): 7.607 mM | [mM] M1 ([1]; M1=Lu, M2=Tm): 7.337 mM | [mM] Tm ([1]; M1=Lu, M2=Tm): 4.588 mM | M1/Er ([1]; M1=Lu): 1.67 | [mM] Er ([1]; M1=Nd, M2=Er): 0.692 mM | [mM] M1 ([1]; M1=Nd, M2=Er): 0.280 mM | [mM] M1 ([1]; M1=Nd, M2=Tm): 0.315 mM | [mM] Tm ([1]; M1=Nd, M2=Tm): 1.892 mM | M1/Er ([1]; M1=Nd): 0.40 | [mM] M1 ([1]; M1=Pr, M2=Er): 0.210 mM | [mM] M1 ([1]; M1=Pr, M2=Tm): 0.298 mM | [mM] Tm ([1]; M1=Pr, M2=Tm): 2.016 mM | M1/Er ([1]; M1=Pr): 0.32 | [mM] M1 ([1]; M1=Sc, M2=Er): 5.191 mM | [mM] M1 ([1]; M1=Sc, M2=Tm): 5.087 mM | [mM] Tm ([1]; M1=Sc, M2=Tm): 4.448 mM | M1/Er ([1]; M1=Sc): 1.16 | [mM] Er ([1]; M1=Sm, M2=Er): 0.734 mM | [mM] M1 ([1]; M1=Sm, M2=Er): 0.197 mM | [mM] M1 ([1]; M1=Sm, M2=Tm): 0.218 mM | [mM] Tm ([1]; M1=Sm, M2=Tm): 2.090 mM | M1/Er ([1]; M1=Sm): 0.27 | [mM] M1 ([1]; M1=Tb, M2=Er): 0.225 mM | [mM] M1 ([1]; M1=Tb, M2=Tm): 0.225 mM | [mM] Tm ([1]; M1=Tb, M2=Tm): 2.342 mM | M1/Er ([1]; M1=Tb): 0.28 | [mM] M1 ([1]; M1=Tm, M2=Er): 3.971 mM | [mM] M1 ([1]; M1=Tm, M2=Tm): 4.779 mM | [mM] Tm ([1]; M1=Tm, M2=Tm): 4.779 mM | M1/Er ([1]; M1=Tm): 1.73 | [mM] M1 ([1]; M1=Y, M2=Er): 0.503 mM | [mM] M1 ([1]; M1=Y, M2=Tm): 0.480 mM | [mM] Tm ([1]; M1=Y, M2=Tm): 2.367 mM | M1/Er ([1]; M1=Y): 0.56 | [mM] M1 ([1]; M1=Yb, M2=Er): 5.400 mM | [mM] M1 ([1]; M1=Yb, M2=Tm): 5.477 mM | [mM] Tm ([1]; M1=Yb, M2=Tm): 4.598 mM | M1/Er ([1]; M1=Yb): 1.25

O=C(O)CN1CCN(CC(=O)O)CCN(Cc2cccc3ccccc23)CCN(CC(=O)O)CC1 [L5, 2,2′,2″-(10-(naphthalene-1-ylmethyl)-1,4,7,10-tetraazacyklododekane-1,4,7-triyl)triacetic acid]
% distribution in fractions L5 ([2]; fraction 1 (0% MeCN)): 0.0% | % distribution in fractions Pr ([2]; fraction 1 (0% MeCN)): 87% | measured content of fraction L5 peak area (280 nm) ([2]; fraction 1 (0% MeCN)): 0 AU | measured content of fraction Pr ([2]; fraction 1 (0% MeCN)): 18.95 mM | % distribution in fractions L5 ([2]; fraction 2 (10% MeCN)): 0.1% | % distribution in fractions Pr ([2]; fraction 2 (10% MeCN)): 13% | measured content of fraction L5 peak area (280 nm) ([2]; fraction 2 (10% MeCN)): 3 AU | measured content of fraction Pr ([2]; fraction 2 (10% MeCN)): 2.82 mM | % distribution in fractions L5 ([2]; fraction 3 (10% MeCN)): 56.8% | measured content of fraction L5 peak area (280 nm) ([2]; fraction 3 (10% MeCN)): 2258 AU | % distribution in fractions L5 ([2]; fraction 4 (25% MeCN)): 34.8% | measured content of fraction L5 peak area (280 nm) ([2]; fraction 4 (25% MeCN)): 1382 AU | % distribution in fractions L5 ([2]; fraction 5 (25% MeCN)): 8.1% | measured content of fraction L5 peak area (280 nm) ([2]; fraction 5 (25% MeCN)): 324 AU | % distribution in fractions L5 ([2]; fraction 6 (50% MeCN)): 0.1% | measured content of fraction L5 peak area (280 nm) ([2]; fraction 6 (50% MeCN)): 5 AU | % distribution in fractions L5 ([2]; fraction 7 (50% MeCN)): 0.1% | measured content of fraction L5 peak area (280 nm) ([2]; fraction 7 (50% MeCN)): 3 AU | solution after 20 hrs ([3]; Ln=Dy): 0.58 mM | precipitate after 20 hrs ([3]; Ln=Dy): 4.69 mM | precipitate after 20 hrs composition ([3]; Ln=Dy): 14.9% | solution after 20 hrs composition ([3]; Ln=Dy): 17.1% | solution after 20 hrs ([3]; Ln=Nd): 1.85 mM | precipitate after 20 hrs ([3]; Ln=Nd): 16.68 mM | precipitate after 20 hrs composition ([3]; Ln=Nd): 53.0% | solution after 20 hrs composition ([3]; Ln=Nd): 54.3% | solution after 20 hrs ([3]; Ln=Pr): 0.47 mM | precipitate after 20 hrs ([3]; Ln=Pr): 4.85 mM | precipitate after 20 hrs composition ([3]; Ln=Pr): 15.4% | solution after 20 hrs composition ([3]; Ln=Pr): 13.9% | solution after 20 hrs ([3]; Ln=Tb): 0.50 mM | precipitate after 20 hrs ([3]; Ln=Tb): 5.28 mM | precipitate after 20 hrs composition ([3]; Ln=Tb): 16.8% | solution after 20 hrs composition ([3]; Ln=Tb): 14.7%
